Measured values reported in paper PMC11141316, “Anilino-1,4-naphthoquinones as potent mushroom tyrosinase inhibitors: in vitro and in silico studies” (Journal of Enzyme Inhibition and Medicinal Chemistry, 2024).
Where two headings read alike, the source gives them in different places.

Legend:
[1] = target: mushroom tyrosinase; conditions: read-out: IC50 (previously reported tyrosinase inhibitor); cited from earlier work
[2] = tested on: EGFR; design: method as in PMID 35664590, PMID 25019480; conditions: cited from earlier work
[3] = target: mushroom tyrosinase; assay: Mushroom tyrosinase activity assay (L-DOPA to dopachrome); assay type: biochemical; conditions: L-DOPA substrate, 37 °C, pH 6.8, mean ± SEM, n = 3
Experimental: Enzymatic conversion of L-DOPA into dopachrome by mushroom tyrosinase (Sigma Aldrich, St. Louis, MO) was detected using spectrophotometric evaluation. The mushroom tyrosinase activity assay was performed according to a previous report. In this study, the enzyme assay was conducted at 37 °C, which is in the optimal temperature range of tyrosinase, as per previous studies[20]^,[21]. The enzyme, substrate, and inhibitor(s) were dissolved in potassium phosphate buffer at a pH of 6.8, which is in the optimal pH range of tyrosinase. Note that, the solvent for preparing the stock solution of inhibitors was dimethyl sulphoxide. […] Then, the substrate (10 μL of 50 mM of L-DOPA) was introduced to the samples, followed by incubation at 37 °C for 15 min in darkness. The absorbance was later measured at 450 nm. The experiment was conducted in triplicate. IC50 values were determined through dose–response curve analysis using GraphPad Prism 10.2.2 software (La Jolla, CA).
Data are presented as the mean ± standard error of the mean (SEM) from three independent experiments (n = 3). Statistical comparisons between two groups were conducted using the t-test, with a p value of <0.05 considered to be statistically significant.

SMILES	IC50 [1]	IC50 [3]	other results
CC1(C)C=Cc2c(O)ccc(C3=Cc4ccc(O)cc4OC3)c2O1 [glabrene]	7600 µM	–	–
Cc1ccc(NC2=C(Cl)C(=O)c3ccccc3C2=O)cc1 [compound 3]	–	–	EGFR inhibitory potency relative to erlotinib [2]: fourfold higher potency than erlotinib
O=C1C=C(Nc2ccccc2)C(=O)c2ccccc21 [compound 1]	–	151 ± 4.39 µM	–
O=c1c(O)c(-c2ccc(O)cc2O)oc2cc(O)cc(O)c12 [morin]	2320 µM	–	–
C[C@@H]1[C@H](O)[C@@H](C)/C=C/C=C/C=C/C=C/C=C/C=C/C=C/[C@H](O[C@@H]2O[C@H](C)[C@@H](O)[C@H](N)[C@@H]2O)C[C@@H]2O[C@](O)(C[C@@H](O)C[C@@H](O)[C@H](O)CC[C@@H](O)C[C@@H](O)CC(=O)O[C@H]1C)C[C@H](O)[C@H]2C(=O)O [amphotericin B]	263 ± 11.8 µM	–	–
O=C1C(Cl)=C(Nc2ccc(Br)cc2)C(=O)c2ccccc21 [compound 5]	–	138 ± 6.07 µM	–
CC(=O)c1cccc(NC2=C(Cl)C(=O)c3ccccc3C2=O)c1 [compound 10]	–	112 ± 9.18 µM	–
